Laboratory results taken from paper PMC8344022, “Small-molecule inhibitor of AF9/ENL-DOT1L/AF4/AFF4 interactions suppresses malignant gene expression and tumor growth” (Theranostics, 2021).

Columns and labels:
[1] = tested on: MV4;11 leukemia xenograft; test: Subcutaneous MV4;11 xenograft antitumor study; format: in vivo, NOD-SCID mice; details: 15 mg/kg/day i.p. for 10 days; two cohorts (N = 6 and 8; p < 0.01 and 0.05)
Description: In vivo antitumor activity of compound 1 was evaluated in a commonly used mouse model of MLL-r leukemia, [26]. 10^7 MV4;11 cells in 0.1 mL of saline and Matrigel (1:1) were injected subcutaneously into NOD-SCID mice, which can develop palpable tumors in ~2 weeks.
In vivo antitumor studies. All of the mouse studies were conducted in strict compliance with an IRB-approved protocol. NOD-SCID mice (4 to 6 weeks old, from Jackson lab) were obtained and maintained under specific pathogen-free conditions. 10^7 MV4;11 cells in medical grade saline and Matrigel (1:1, 0.1 mL) were inoculated subcutaneously and palpable tumors (2-3 mm in diameter) were developed in ~ 2 weeks. Mice were treated with compound 1 (15 mg/kg/day for 10 days) in saline (0.1 mL) administered intraperitoneally. Tumors were measured every 2 days and estimated by using the formula a×b^2/2.

[2] = target: LSD1 (Homo sapiens, UniProt O60341); test: LSD1 enzyme inhibition; format: biochemical; details: at 100 µM (Figure S3: 30 or 100 µM)
Description: (§1) Inhibition of DOT1L, LSD1 and p300 was performed using our previously reported methods, [37], [38].
(§2) LSD1, and p300 histone acetyltransferase at 30 or 100 µM, using our previous reported methods [Ref. 36, 37,
(§3) (1 picture or pasted object on this page, not shown here)

[3] = tested on: H3K79me2 at gene promoters in Molm-13 cells; test: Chromatin immunoprecipitation (ChIP)-qPCR; format: cell-based
Description: Next, compound 1 was tested for its ability to change expression of characteristic MLL-r leukemia genes HoxA9, Meis1 and Myc. Myc is also overexpressed in a broad range of AML and other cancers. […] (Figure S5), presumably because SEC is not recruited there.
Chromatin immunoprecipitation. […] Cells were lysed with nuclear lysis buffer and sonicated to ~100-1000 bp fragments, which was incubated at 4 °C overnight with the H3K79me2 antibody (#5427, Cell signaling) and IgG (C15410206, Diagenode). Protein A/G Magnetic Beads (10 µL, Novus Biologicals) were added and incubated for 2 h. The beads were washed 3x with RIPA buffer and 2x with TE buffer. DNA on the beads was eluted for 2 hours at 68 °C in 100 μL of an elution buffer (20 mM Tris pH 7.5, 5 mM EDTA, 50 mM NaCl, 1% SDS, 50 μg/ml proteinase K) (2x), and purified using a ChIP DNA Clean & Concentrator kit (Novus Biologicals). qPCR was done using the method described above.

[4] = tested on: RPMI-8226 cells; test: Antiproliferation assay (XTT); format: cell-based; details: Homo sapiens, 168 h, 7-day incubation, read-out: Cytotoxicity EC50
Description: (§4) Antiproliferation assay. Proliferation inhibition assays for suspension blood cancer cells were performed using an XTT assay kit (Roche). Proliferation inhibition assays for solid tumor cell lines MCF-7, MDA-MB-231, Panc1, Panc28 were performed using an MTT assay (Sigma). The antiproliferation EC50 values were determined using Prism 5 and the reported results were the mean values of at least three independent experiments. The incubation time for compound 1 was 7 days and that for EPZ4777 was 14 days.

[5] = tested on: Kasumi-1 cells; test: Antiproliferation assay (XTT); format: cell-based; details: Homo sapiens, 168 h, 7-day incubation, read-out: Cytotoxicity EC50
Description: as §4

[6] = tested on: THP-1 cells; test: Antiproliferation assay (XTT); format: cell-based; details: Homo sapiens, 168 h, 7-day incubation, read-out: Cytotoxicity EC50
Description: as §4

[7] = tested on: MV4;11 cells; test: Antiproliferation assay (XTT); format: cell-based; details: Homo sapiens, 168 h, 7-day incubation, read-out: Cytotoxicity EC50
Description: as §4

[8] = target: T1, AF9-AF4 interaction (Homo sapiens, UniProt P42568); test: Alpha assay, AF9-AF4 interaction; format: binding; details: read-out: IC50, inhibition of AF9-AF4 interaction
T1 construct: cDNA for human AF9 AHD domain (475-568) and ENL AHD domain (489-559) was synthesized; made in house; host or cells: E. coli BL21(DE3)
T1 sequence (P42568 475-568): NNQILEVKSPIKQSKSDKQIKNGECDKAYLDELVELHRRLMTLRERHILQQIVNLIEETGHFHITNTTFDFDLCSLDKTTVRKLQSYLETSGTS
Description: ENL is also a major MLL fusion partner (~10%). The AHD domains of human ENL and AF9 share a high homology with 82% identity and 89% similarity (Figure S1A). […] Our attempts to develop an Alpha assay for ENL-DOT1L failed. […] Compound 1's activity against ENL-DOT1L was therefore not determined.
Alpha assays. Alpha assays were developed using Perkin-Elmer AlphaLisa anti-MBP kit, which contains streptavidin donor beads and anti-MBP acceptor beads. The assay was performed using a MBP-protein (5 nM), a biotinylated peptide (40 nM), and increasing concentrations of a compound in 25 µL buffer (PBS with 0.5 % BSA, pH 7.5) in 384-well plates according to the manufacturer's protocol and measured with a Tecan SPARK microplate reader. Data were imported into Prism (version 5.0), and IC50 values from 3 independent experiments with standard deviation were obtained by using a standard dose-response curve fitting.

[9] = tested on: MLL-AF9-bound DOT1L and AF4 in Molm-13 cells; test: Co-immunoprecipitation with N-terminal MLL antibody; format: cell-based; details: 2 days
Description: Next, we investigated how compound 1 affects these transcription cofactors in the nucleus, where they regulate gene expression. […] DOT1L inhibitor EPZ4777 [25] reduced the methylation levels of H3K79, but not other proteins (Figure 3B). […] In this regard, despite lack of activity against DOT1L, compound 1 can mimic EPZ4777 to reduce H3K79 methylation.
Co-immunoprecipitation. 10^8 Molm-13 cells were treated with a compound or DMSO for 48 hr. Co-immunoprecipitation of the nuclear protein extracts (450 µg of total protein from 10^8 molm-13 cells) was performed using a Nuclear Complex Co-IP Kit (#54001, Active Motif). Briefly, 3 µg of MLL-N Rabbit mAb (#14689, Cell signaling) and 100 µL Protein G Agarose Beads (#37478, Cell signaling) were added and incubated with the nuclear extractions overnight at 4 °C. The Agarose beads with captured antibody and relevant protein complexes were isolated, washed and subjected to Western blot for protein detection.

[10] = tested on: Panc-1 cells; test: Antiproliferation assay (MTT); format: cell-based; details: Homo sapiens, 168 h, 7-day incubation, read-out: Cytotoxicity EC50
Description: as §4

[11] = tested on: Panc-28 cells; test: Antiproliferation assay (MTT); format: cell-based; details: 168 h, 7-day incubation, read-out: Cytotoxicity EC50
Description: as §4

[12] = tested on: MDA-MB-231 cells; test: Antiproliferation assay (MTT); format: cell-based; details: Homo sapiens, 168 h, 7-day incubation, read-out: Cytotoxicity EC50
Description: as §4

[13] = tested on: MCF-7 cells; test: Antiproliferation assay (MTT); format: cell-based; details: Homo sapiens, MCF7, 168 h, 7-day incubation, read-out: Cytotoxicity EC50
Description: as §4

[14] = target: DOT1L (Homo sapiens, UniProt Q8TEK3); test: DOT1L enzyme inhibition; format: biochemical; details: at 100 µM (Figure S3: 30 or 100 µM)
Chain of DOT1L (Q8TEK3 1-472): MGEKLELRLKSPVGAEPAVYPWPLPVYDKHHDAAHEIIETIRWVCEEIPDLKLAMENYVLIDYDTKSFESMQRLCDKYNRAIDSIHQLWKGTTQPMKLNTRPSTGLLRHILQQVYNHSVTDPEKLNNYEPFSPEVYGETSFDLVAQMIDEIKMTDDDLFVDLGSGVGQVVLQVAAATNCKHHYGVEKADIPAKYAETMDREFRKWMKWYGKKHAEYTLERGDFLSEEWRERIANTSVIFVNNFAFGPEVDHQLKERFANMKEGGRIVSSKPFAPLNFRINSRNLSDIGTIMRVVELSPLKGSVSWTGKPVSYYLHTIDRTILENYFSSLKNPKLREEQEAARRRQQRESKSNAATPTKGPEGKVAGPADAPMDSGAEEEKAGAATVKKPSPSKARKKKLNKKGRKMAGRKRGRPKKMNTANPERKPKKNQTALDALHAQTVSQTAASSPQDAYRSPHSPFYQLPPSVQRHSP
Description: as §1, §2, §3

For `CC(C)(C)c1ccc(-n2cc(C(=O)NC3CCNCC3)nc2-c2ccccc2)cc1` [Compound 1], the Tumor growth [1] was “significantly inhibited tumor growth”, the “Inhibition of LSD1 enzyme activity” value [2] was “did not significantly inhibit” and the “H3K79-Me2 in a non-transcribed DNA region” value [3] was “did not significantly reduce H3K79-Me2”. For the same compound, the “H3K79me2 in the gene promoters of HoxA9 and Myc” value ([3]; 5 μM for 4 days) was “decreased levels of H3K79me2”, the EC50 [4] was 3.3 ± 0.1 µM and the EC50 [5] was 8.9 ± 0.3 µM. It also gave an EC50 [6] of 11.4 ± 0.6 µM, an EC50 [7] of 4.7 ± 0.4 µM and an IC50 [8] of 1.5 ± 0.2 µM. The “MLL-AF9-bound DOT1L and AF4 (Co-IP)” value [9] was “dose-dependent decrease of MLL-AF9-bound DOT1L and AF4”, the EC50 [10] was 15.1 ± 0.2 µM and the EC50 [11] was 23.8 ± 0.2 µM. The EC50 [12] was 13.5 ± 0.2 µM, the EC50 [13] was 19.8 ± 0.3 µM and the “Inhibition of DOT1L enzyme activity” value [14] was “did not significantly inhibit”.
